Source: PubChem BioAssay (NCI)
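Five compound concentrations were applied to cells in 96-well plates for 48 hours; endpoints were derived by simple linear interpolation of the resulting dose-response curve. Here, GI50 denotes the concentration required for 50% inhibition of growth. At the TGI there is no net growth.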

Key:
Assay in all cases: NCI anticancer screen, dose series, 48 h
[1] = tested on: NCI-H522 lung
[2] = tested on: OVCAR-5 ovarian
[3] = tested on: OVCAR-3 ovarian
[4] = tested on: TK-10 renal
[5] = tested on: UO-31 renal
[6] = tested on: KM12 colon
[7] = tested on: K-562 leukemia
[8] = tested on: NCI-H226 lung
[9] = tested on: CAKI-1 renal
[10] = tested on: HS 578T breast
[11] = tested on: IGROV1 ovarian
[12] = tested on: RXF 393 renal
[13] = tested on: NCI-H23 lung
[14] = tested on: MOLT-4 leukemia
[15] = tested on: A549 NSCLC
[16] = tested on: OVCAR-8 ovarian
[17] = tested on: ACHN renal
[18] = tested on: HL-60(TB) leukemia
[19] = tested on: HCT-15 colon
[20] = tested on: MDA-MB-435
[21] = tested on: SF-295 CNS
[22] = tested on: HOP-62 NSCLC
[23] = tested on: SK-OV-3 ovarian
[24] = tested on: BT-549 breast
[25] = tested on: SK-MEL-2 melanoma
[26] = tested on: MALME-3M melanoma
[27] = tested on: HT29 colon
[28] = tested on: A498 renal
[29] = tested on: SK-MEL-5 melanoma
[30] = tested on: NCI-H460 lung
[31] = tested on: SNB-75 CNS
[32] = tested on: CCRF-CEM leukemia
[33] = tested on: T-47D breast
[34] = tested on: UACC-62 melanoma
[35] = tested on: U251 CNS
[36] = tested on: HCT-116 colon
[37] = tested on: LOX IMVI melanoma
[38] = tested on: SK-MEL-28 melanoma
[39] = tested on: MDA-MB-231 breast
[40] = tested on: SR leukemia
[41] = tested on: HCC-2998 colon
[42] = tested on: SF-268 CNS
[43] = tested on: OVCAR-4 ovarian
[44] = tested on: SNB-19 CNS
[45] = tested on: M14 melanoma
[46] = tested on: 786-0 renal
[47] = tested on: COLO 205 colon
[48] = tested on: UACC-257 melanoma
[49] = tested on: HOP-92 NSCLC
[50] = tested on: EKVX NSCLC
[51] = tested on: DU-145 prostate
[52] = tested on: NCI/ADR-RES ovarian
[53] = tested on: PC-3 prostate
[54] = tested on: RPMI-8226 leukemia
[55] = tested on: SW-620 colon
[56] = tested on: SN12C renal
[57] = tested on: MCF7 breast
[58] = tested on: SF-539 CNS

## CN1CCN(c2ccc3c(c2)NCC(=O)N3)CC1
[1]
  TGI: > 100 µM
[2]
  TGI: > 100 µM
[3]
  TGI: > 100 µM
[4]
  TGI: > 100 µM
[5]
  TGI: > 100 µM
[6]
  TGI: > 100 µM
[7]
  TGI: > 100 µM
[8]
  TGI: > 100 µM
[9]
  TGI: > 100 µM
[10]
  TGI: > 100 µM
[11]
  TGI: > 100 µM
[12]
  TGI: > 100 µM
[13]
  TGI: > 100 µM
[14]
  TGI: > 100 µM
[15]
  TGI: > 100 µM
[16]
  TGI: > 100 µM
[17]
  TGI: > 100 µM
[18]
  TGI: > 100 µM
[19]
  TGI: > 100 µM
[20]
  TGI: > 100 µM
[21]
  TGI: > 100 µM
[22]
  TGI: > 100 µM
[23]
  TGI: > 100 µM
[24]
  TGI: > 100 µM
[25]
  TGI: > 100 µM
[26]
  TGI: > 100 µM
[27]
  TGI: > 100 µM
[28]
  TGI: > 100 µM
[29]
  TGI: > 100 µM
[30]
  TGI: > 100 µM
[31]
  TGI: > 100 µM
[32]
  TGI: > 100 µM
[33]
  TGI: > 100 µM
[34]
  TGI: > 100 µM
[35]
  TGI: > 100 µM
[36]
  TGI: > 100 µM
[37]
  TGI: > 100 µM
[38]
  TGI: > 100 µM
[39]
  TGI: > 100 µM
[40]
  TGI: > 100 µM
[41]
  TGI: > 100 µM
[42]
  TGI: > 100 µM
[43]
  TGI: > 100 µM
[44]
  TGI: > 100 µM
[45]
  TGI: > 100 µM
[46]
  TGI: > 100 µM
[47]
  TGI: > 100 µM
[48]
  TGI: > 100 µM
[49]
  TGI: > 100 µM
[50]
  TGI: > 100 µM
[51]
  TGI: > 100 µM
[52]
  TGI: > 100 µM
[53]
  TGI: > 100 µM
[54]
  TGI: > 100 µM
[55]
  TGI: > 100 µM

## CC1c2ccccc2CCN1c1ccc(CO)c(Cl)c1 (configuration not stated)
[1]
  GI50: 17.4 µM
  TGI: 50.5 µM
[2]
  GI50: 0.0427 µM
  TGI: 0.187 µM
[3]
  GI50: 0.171 µM
  TGI: 3.36 µM
[4]
  GI50: 0.0346 µM
  TGI: 0.187 µM
[5]
  GI50: 14.6 µM
  TGI: 65.3 µM
[6]
  GI50: 22.6 µM
  TGI: > 72.5 µM
[7]
  GI50: 0.385 µM
  TGI: > 100 µM
[8]
  GI50: 0.0491 µM
  TGI: 0.228 µM
[9]
  GI50: 3.46 µM
  TGI: 50.3 µM
[10]
  GI50: 21.9 µM
  TGI: 70.7 µM
[11]
  GI50: 0.0488 µM
  TGI: 0.307 µM
[12]
  GI50: 1.2 µM
  TGI: 23.8 µM
[56]
  GI50: 15.3 µM
  TGI: > 57 µM
[13]
  GI50: 21.8 µM
  TGI: > 72.3 µM
[14]
  GI50: 24.6 µM
  TGI: 77.7 µM
[15]
  GI50: 0.759 µM
  TGI: 17.1 µM
[16]
  GI50: 5.77 µM
  TGI: 52.6 µM
[17]
  GI50: 22.6 µM
  TGI: > 81 µM
[18]
  GI50: 21.3 µM
  TGI: 70.2 µM
[19]
  GI50: 13.3 µM
  TGI: 53.3 µM
[20]
  GI50: 17.3 µM
  TGI: 53.5 µM
[21]
  GI50: 0.274 µM
  TGI: 31.4 µM
[22]
  GI50: 1.67 µM
  TGI: 25.3 µM
[23]
  GI50: 1.61 µM
  TGI: 10.7 µM
[24]
  GI50: 17.2 µM
  TGI: 37.7 µM
[26]
  GI50: 22.7 µM
  TGI: 54.6 µM
[27]
  GI50: 0.383 µM
  TGI: 25.2 µM
[28]
  GI50: 0.0149 µM
  TGI: 0.0888 µM
[29]
  GI50: 13.8 µM
  TGI: 27.1 µM
[30]
  GI50: 0.0864 µM
  TGI: 3.3 µM
[31]
  GI50: 20 µM
  TGI: 75 µM
[32]
  GI50: 30.9 µM
  TGI: > 100 µM
[33]
  GI50: 0.053 µM
  TGI: 0.311 µM
[34]
  GI50: 0.15 µM
  TGI: 14.5 µM
[35]
  GI50: 0.318 µM
  TGI: > 46.1 µM
[36]
  GI50: 0.0345 µM
  TGI: 12.6 µM
[37]
  GI50: 22.2 µM
  TGI: 49.8 µM
[38]
  GI50: 17.1 µM
  TGI: 63.7 µM
[39]
  GI50: 15.5 µM
  TGI: 58.4 µM
[40]
  GI50: 28.3 µM
  TGI: > 85.9 µM
[41]
  GI50: 2.95 µM
  TGI: 17.6 µM
[42]
  GI50: 40.8 µM
  TGI: > 100 µM
[43]
  GI50: 0.049 µM
  TGI: 2.7 µM
[44]
  GI50: 34.5 µM
  TGI: > 100 µM
[45]
  GI50: 22.5 µM
  TGI: 58.2 µM
[46]
  GI50: 16.7 µM
  TGI: 43.1 µM
[47]
  GI50: 0.19 µM
  TGI: 0.626 µM
[48]
  GI50: 0.0412 µM
  TGI: 0.191 µM
[49]
  GI50: 0.19 µM
  TGI: 16.6 µM
[57]
  GI50: 0.0565 µM
  TGI: 23.2 µM
[51]
  GI50: 11.6 µM
  TGI: > 53 µM
[52]
  GI50: 13.1 µM
  TGI: 50.5 µM
[58]
  GI50: 19.1 µM
  TGI: 47.3 µM
[53]
  GI50: 19.6 µM
  TGI: > 83.5 µM
[54]
  GI50: 1.94 µM
  TGI: 47.5 µM
[55]
  GI50: 0.203 µM
  TGI: > 100 µM
